Measured values as given in ChEMBL document CHEMBL1124449, “Synthesis and evaluation of the pharmacological activity of rigid analogues of sympathomimetic catecholamines derived from bicyclo[2.2.1]heptane” (J Med Chem, 1989).
Calls of active or inactive are those of the source.

Legend:
[1] = Stimulation or blockade of Alpha adrenergic receptor on rat vas deferens up to a dose of 10e-4 M; type: tissue-based
[2] = molecular target: Beta-1 adrenergic receptor (Cavia porcellus) (UniProt B0FL73); assay: Stimulation or blockade of Beta-1 adrenergic receptor on guinea pig atria up to a dose of 10e-4 M
[3] = molecular target: Beta-2 adrenergic receptor (Canis lupus familiaris) (UniProt P54833); assay: Stimulation or blockade of Beta-2 adrenergic receptor on guinea pig trachea up to a dose of 10e-4 M; details: Cavia porcellus; target entry is the homologue from another species

Measured: Activity

Sequence of Beta-1 adrenergic receptor (Cavia porcellus) (B0FL73 1-467): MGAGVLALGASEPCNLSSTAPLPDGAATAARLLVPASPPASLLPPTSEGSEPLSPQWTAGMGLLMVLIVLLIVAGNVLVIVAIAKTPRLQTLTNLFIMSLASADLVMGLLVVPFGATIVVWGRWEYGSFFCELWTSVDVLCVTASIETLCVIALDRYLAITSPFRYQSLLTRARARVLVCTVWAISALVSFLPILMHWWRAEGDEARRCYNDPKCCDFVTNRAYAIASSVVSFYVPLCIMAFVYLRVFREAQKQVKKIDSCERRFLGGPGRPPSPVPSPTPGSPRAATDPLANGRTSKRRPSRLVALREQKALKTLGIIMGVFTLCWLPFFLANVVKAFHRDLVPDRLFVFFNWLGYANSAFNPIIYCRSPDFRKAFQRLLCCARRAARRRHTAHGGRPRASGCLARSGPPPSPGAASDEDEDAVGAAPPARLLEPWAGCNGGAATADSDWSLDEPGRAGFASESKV
Sequence of Beta-2 adrenergic receptor (Canis lupus familiaris) (P54833 whole entry, looked up): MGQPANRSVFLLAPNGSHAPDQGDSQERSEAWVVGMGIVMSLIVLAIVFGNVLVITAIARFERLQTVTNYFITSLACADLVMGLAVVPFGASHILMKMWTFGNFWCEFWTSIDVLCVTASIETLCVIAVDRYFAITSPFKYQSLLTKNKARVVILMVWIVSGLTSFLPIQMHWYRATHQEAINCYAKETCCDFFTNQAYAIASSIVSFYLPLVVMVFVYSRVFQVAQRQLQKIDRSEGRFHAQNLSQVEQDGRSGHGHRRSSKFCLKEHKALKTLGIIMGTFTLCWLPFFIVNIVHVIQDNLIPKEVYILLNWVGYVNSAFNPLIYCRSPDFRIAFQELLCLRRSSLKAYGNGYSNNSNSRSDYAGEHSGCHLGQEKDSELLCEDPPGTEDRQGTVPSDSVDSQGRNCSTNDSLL

CC(C)NC1C2CCC(C2)C1(O)c1ccc(O)c(O)c1 (stereo unspecified)
inactive: [1] | [2] | [3]

NC1C2CCC(C2)C1(O)c1ccc(O)c(O)c1 (stereo unspecified)
inactive: [1] | [2] | [3]
